Laboratory results reported in patent publication US10722501B2 (BAYER AKTIENGESELLSCHAFT, priority 2016, dated 2020).

biological target: T1, recombinant full-length human prolyl endopeptidase (PREP) (Homo sapiens, UniProt P48147); test: Biochemical human prolyl endopeptidase (PREP) assay with fluorescently labelled substrate; conditions: substrate Z-Gly-Pro-AMC 50 μM, 32° C., 60 min; some as mean values from multiple independent determinations
T1 construct: To recombinant full-length human prolyl endopeptidase (PREP, R&D-Systems, 4308-SE); purchased R&D-Systems 4308-SE
T1 sequence (P48147 1-710): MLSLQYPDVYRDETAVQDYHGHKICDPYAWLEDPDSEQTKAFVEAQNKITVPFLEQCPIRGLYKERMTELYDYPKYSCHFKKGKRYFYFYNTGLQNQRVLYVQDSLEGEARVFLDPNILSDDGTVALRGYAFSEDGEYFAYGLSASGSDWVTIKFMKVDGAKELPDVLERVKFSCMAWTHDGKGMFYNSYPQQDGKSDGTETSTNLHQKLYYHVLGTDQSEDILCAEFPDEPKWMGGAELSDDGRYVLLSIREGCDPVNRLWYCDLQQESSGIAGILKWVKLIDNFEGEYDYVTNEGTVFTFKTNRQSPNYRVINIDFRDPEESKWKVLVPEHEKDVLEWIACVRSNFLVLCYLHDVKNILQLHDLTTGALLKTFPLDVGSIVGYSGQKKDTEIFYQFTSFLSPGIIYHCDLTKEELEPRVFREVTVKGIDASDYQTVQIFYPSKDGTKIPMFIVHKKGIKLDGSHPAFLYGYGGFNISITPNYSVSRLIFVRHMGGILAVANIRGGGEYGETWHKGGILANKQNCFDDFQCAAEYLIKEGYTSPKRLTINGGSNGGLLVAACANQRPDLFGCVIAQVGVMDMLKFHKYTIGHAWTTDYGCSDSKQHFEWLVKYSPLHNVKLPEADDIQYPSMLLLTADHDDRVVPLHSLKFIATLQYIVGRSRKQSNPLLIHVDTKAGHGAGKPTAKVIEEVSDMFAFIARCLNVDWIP
In short: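 Initial rates of fluorescence increase from 50 μM Z-Gly-Pro-AMC cleavage (ex 360/em 465 nm, 60 min, 32° C) give percent PREP activity versus no-compound control, and IC50 is interpolated. Enzyme used at 0.4 nM (final, example) in Tris pH 7.5 with EDTA, GSH, BSA and Brij-35; compounds span 1 nM to 30 μM.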

Structure (SMILES) | IC50
O=C([C@@H]1CCCc2nn(Cc3ncc(Cl)cc3Cl)c(=O)n21)N1CCC(F)(F)C1 [Example 399, (5S)-2-[(3,5-Dichloropyridin-2-yl)methyl]-5-[(3,3-difluoropyrrolidin-1-yl)carbonyl]-5,6,7,8-tetrahydro[1,2,4]triazolo[4,3-a]pyridin-3(2H)-one] | 1.55 nM
O=C([C@@H]1CCCc2nn(Cc3cc(C(F)(F)F)nc4ccccc34)c(=O)n21)N1C[C@@H](F)[C@@H](F)C1 [Example 497, (5S)-5-{[(3R,4S)-3,4-Difluoropyrrolidin-1-yl]carbonyl}-2-{[2-(trifluoromethyl)quinolin-4-yl]methyl}-5,6,7,8-tetrahydro[1,2,4]triazolo[4,3-a]pyridin-3(2H)-one] | 0.18 nM
O=C([C@@H]1CCCc2nn(Cc3ccnc(C(F)(F)F)c3F)c(=O)n21)N1CCSC1 [Example 485, (5S)-2-{[3-Fluoro-2-(trifluoromethyl)pyridin-4-yl]methyl}-5-(1,3-thiazolidin-3-ylcarbonyl)-5,6,7,8-tetrahydro[1,2,4]triazolo[4,3-a]pyridin-3(2H)-one] | 4.3 nM
CC1Cc2nn(Cc3ccc(F)c(Cl)c3)c(=O)n2C(C(=O)N2C[C@@H](F)[C@@H](F)C2)C1 (mixture of isomers) [Example 339, (5RS,7RS)-2-(3-Chloro-4-fluorobenzyl)-5-{[(3R,4S)-3,4-difluoropyrrolidin-1-yl]carbonyl}-7-methyl-5,6,7,8-tetrahydro[1,2,4]triazolo[4,3-a]pyridin-3(2H)-one] | 0.49 nM
Cc1ccc(Cn2nc3n(c2=O)C(C(=O)N2CC[C@H](O)C2)CCC3)cc1 (single isomer, unassigned) [Example 116] | 3 nM
O=C(C1CCCc2nn(Cc3ccc(Cl)cc3)c(=O)n21)N1CCCC1 (racemic) [Example 27, (5RS)-2-(4-Chlorobenzyl)-5-(pyrrolidin-1-ylcarbonyl)-5,6,7,8-tetrahydro[1,2,4]triazolo[4,3-a]pyridin-3(2H)-one] | 1.28 nM
O=C([C@@H]1CCCc2nn(Cc3cc(C(F)(F)F)nc4ccccc34)c(=O)n21)N1CC(O)C1 [Example 495, (5S)-5-[(3-Hydroxyazetidin-1-yl)carbonyl]-2-{[2-(trifluoromethyl)quinolin-4-yl]methyl}-5,6,7,8-tetrahydro[1,2,4]triazolo[4,3-a]pyridin-3(2H)-one] | 16.5 nM
CC(c1ccc(Cl)cc1)n1nc2n(c1=O)C(C(=O)N1CCCC1)CCC2 (single isomer, unassigned) [Example 4, (5RS)-2-[(1 RS)-1-(4-Chlorophenyl)ethyl]-5-(pyrrolidin-1-ylcarbonyl)-5,6,7,8-tetrahydro[1,2,4]triazolo[4,3-a]pyridin-3(2H)-one] | 2.2 nM
Cc1ccc(Cn2nc3n(c2=O)[C@H](C(=O)N2CCSC2)CCC3)cc1 [Example 108, (5S)-2-(4-Methylbenzyl)-5-(1,3-thiazolidin-3-ylcarbonyl)-5,6,7,8-tetrahydro[1,2,4]triazolo[4,3-a]pyridin-3(2H)-one] | 0.15 nM
Cc1ccc(Cn2nc3n(c2=O)C(C(=O)N2CCC(F)(CO)C2)CCC3)cc1 (mixture of isomers) [Example 147, (5S)-5-{[(3RS)-3-Fluoro-3-(hydroxymethyl)pyrrolidin-1-yl]carbonyl}-2-(4-methylbenzyl)-5,6,7,8-tetrahydro[1,2,4]triazolo[4,3-a]pyridin-3(2H)-one] | 70 nM
Cn1nc(Cn2nc3n(c2=O)[C@H](C(=O)N2CCC(F)(F)C2)CCC3)c2cccnc21 [Example 413, (5S)-5-[(3,3-Difluoropyrrolidin-1-yl)carbonyl]-2-[(1-methyl-1H-pyrazolo[3,4-b]pyridin-3-yl)methyl]-5,6,7,8-tetrahydro[1,2,4]triazolo[4,3-a]pyridin-3(2H)-one] | 1.9 nM
O=C([C@@H]1CCCc2nn(Cc3ccnc(C(F)(F)F)c3)c(=O)n21)N1CC[C@H](F)C1 [Example 450, (5S)-5-{[(3S)-3-Fluoropyrrolidin-1-yl]carbonyl}-2-{[2-(trifluoromethyl)pyridin-4-yl]methyl}-5,6,7,8-tetrahydro[1,2,4]triazolo[4,3-a]pyridin-3(2H)-one] | 1.1 nM
Cc1ccc(Cn2nc3n(c2=O)[C@H](C(=O)N2CC(C)(F)C2)CCC3)cc1 [Example 195, (5S)-5-[(3-Fluoro-3-methylazetidin-1-yl)carbonyl]-2-(4-methylbenzyl)-5,6,7,8-tetrahydro[1,2,4]triazolo[4,3-a]pyridin-3(2H)-one] | 0.69 nM
Cc1ccc(Cn2nc3n(c2=O)C(C(=O)N2CC(F)C2)CCC3)cc1 (racemic) [Example 112, (5RS)-5-[(3-Fluoroazetidin-1-yl)carbonyl]-2-(4-methylbenzyl)-5,6,7,8-tetrahydro[1,2,4]triazolo[4,3-a]pyridin-3(2H)-one] | 1.59 nM
CC1CCC(C(=O)N2C[C@@H](F)[C@@H](F)C2)n2c1nn(Cc1ccc(F)c(Cl)c1)c2=O (mixture of isomers) [Example 319, (5RS,8RS)-2-(3-Chloro-4-fluorobenzyl)-5-{[(3R,4S)-3,4-difluoropyrrolidin-1-yl]carbonyl}-8-methyl-5,6,7,8-tetrahydro[1,2,4]triazolo[4,3-a]pyridin-3(2H)-one] | 0.63 nM
Cc1ccc(Cn2nc3n(c2=O)[C@H](C(=O)N2CC[S+]([O-])C2)CCC3)cc1 (single isomer, unassigned) [Example 194] | 0.375 nM
O=C(C1CC(C(F)(F)F)Cc2nn(Cc3ncc(F)cc3Cl)c(=O)n21)N1CC[C@H](F)C1 (mixture of isomers) [Example 571, (5RS,7RS)-2-[(3-Chloro-5-fluoropyridin-2-yl)methyl]-5-{[(3S)-3-fluoropyrrolidin-1-yl]carbonyl}-7-(trifluoromethyl)-5,6,7,8-tetrahydro[1,2,4]triazolo[4,3-a]pyridin-3(2H)-one] | 1.1 nM
O=C([C@@H]1CCCc2nn(Cc3ccc(F)cc3Cl)c(=O)n21)N1C[C@@H](F)[C@@H](F)C1 [Example 474, (5S)-2-(2-Chloro-4-fluorobenzyl)-5-{[(3R,4S)-3,4-difluoropyrrolidin-1-yl]carbonyl}-5,6,7,8-tetrahydro[1,2,4]triazolo[4,3-a]pyridin-3(2H)-one] | 0.36 nM
O=C(C1CCCc2nn(Cc3ccc4c(c3)CCCC4)c(=O)n21)N1CCC(F)(F)C1 (racemic) [Example 87, (5RS)-5-[(3,3-Difluoropyrrolidin-1-yl)carbonyl]-2-(5,6,7,8-tetrahydronaphthalen-2-ylmethyl)-5,6,7,8-tetrahydro[1,2,4]triazolo[4,3-a]pyridin-3(2H)-one] | 1.17 nM
COc1ccc(Cn2nc3n(c2=O)C(C(=O)N2CCCC2)CCC3)cn1 (racemic) [Example 92, (5RS)-2-[(6-Methoxypyridin-3-yl)methyl]-5-(pyrrolidin-1-ylcarbonyl)-5,6,7,8-tetrahydro[1,2,4]triazolo[4,3-a]pyridin-3(2H)-one] | 3 nM
O=C([C@@H]1CCCc2nn(Cc3ccnc(C(F)(F)F)c3F)c(=O)n21)N1CC(F)C1 [Example 483, (5S)-5-[(3-Fluoroazetidin-1-yl)carbonyl]-2-{[3-fluoro-2-(trifluoromethyl)pyridin-4-yl]methyl}-5,6,7,8-tetrahydro[1,2,4]triazolo[4,3-a]pyridin-3(2H)-one] | 2.1 nM
O=C(C1CC(C(F)(F)F)Cc2nn(Cc3ccc(C(F)(F)F)nc3)c(=O)n21)N1CCC(F)(F)C1 (single isomer, unassigned) [Example 313, (5RS,7RS)-5-[(3,3-Difluoropyrrolidin-1-yl)carbonyl]-7-(trifluoromethyl)-2-{[6-(trifluoromethyl)pyridin-3-yl]methyl}-5,6,7,8-tetrahydro[1,2,4]triazolo[4,3-a]pyridin-3(2H)-one] | 4 nM
O=C([C@@H]1CCCc2nn(Cc3ccc(C(F)(F)F)c(F)c3)c(=O)n21)N1C[C@@H](F)[C@@H](F)C1 [Example 472, (5S)-5-{[(3R,4S)-3,4-Difluoropyrrolidin-1-yl]carbonyl}-2-[3-fluoro-4-(trifluoromethyl)benzyl]-5,6,7,8-tetrahydro[1,2,4]triazolo[4,3-a]pyridin-3(2H)-one] | 0.245 nM
O=C([C@@H]1CCCc2nn(CC3CCC(C(F)(F)F)CC3)c(=O)n21)N1CCCC1 (single isomer, unassigned) [Example 186] | 1.25 nM
O=C(C1CCCc2nn(CC3CCC(F)(F)CC3)c(=O)n21)N1CCCC1 (racemic) [Example 41, (5RS)-2-[(4,4-Difluorocyclohexyl)methyl]-5-(pyrrolidin-1-ylcarbonyl)-5,6,7,8-tetrahydro[1,2,4]triazolo[4,3-a]pyridin-3(2H)-one] | 13 nM
O=C(C1CCCc2nn(Cc3ncc(C(F)(F)F)cc3Cl)c(=O)n21)N1CCCC1 (racemic) [Example 68, (5RS)-2-{[3-Chloro-5-(trifluoromethyl)pyridin-2-yl]methyl}-5-(pyrrolidin-1-ylcarbonyl)-5,6,7,8-tetrahydro[1,2,4]triazolo[4,3-a]pyridin-3(2H)-one] | 3.9 nM
